In US9061984B2 (University of Louisville Research Foundation, Inc., priority 2008, dated 2015):
Converted amounts (≈) assume the structure as drawn. Like-named read-outs stand apart in the source and are kept apart here.

Key:
3T3 cells = assay: Cell growth inhibition bioassay (sulforhodamine B); type: cell-based, mouse; conditions: Mus musculus, NIH3T3; 48 h, SRB; read-out: GI50 in indicated cell line: 3T3
Method in brief: (§1)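 Cells were exposed to compound alongside matched solvent controls, then stained with sulforhodamine B. Percent growth inhibition was calculated from dye absorbance against the control.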

DU145 cells = assay: Cell growth inhibition bioassay (sulforhodamine B); type: cell-based, human; conditions: Homo sapiens, DU-145; 48 h, SRB; read-out: GI50 in indicated cell line: DU145
Method in brief: (§2)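 Cytotoxicity is read by sulforhodamine B colorimetry following the Skehan protocol; values are growth inhibition relative to solvent-only wells.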

H460 cells = assay: Cell growth inhibition bioassay (sulforhodamine B); type: cell-based, human; conditions: Homo sapiens, NCI-H460; 48 h, SRB; read-out: GI50 in indicated cell line: H460
Method in brief: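 Growth inhibition was measured colorimetrically with sulforhodamine B staining and expressed as percent inhibition relative to solvent-treated controls. Cell lines were human: MCF-7 breast adenocarcinoma, DU145 and PC3 prostate carcinoma/adenocarcinoma, H460 large cell lung cancer.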

HT-29 cells = assay: Cell growth inhibition bioassay (sulforhodamine B); type: cell-based, human; conditions: Homo sapiens, HT-29; 48 h, SRB; read-out: GI50 in indicated cell line: HT-29
Method in brief: as §1

K562 cells = assay: Cell growth inhibition bioassay (sulforhodamine B); type: cell-based, human; conditions: Homo sapiens, K562; 48 h, SRB; read-out: GI50 in indicated cell line: K562
Method in brief: as §1

M-14 cells = assay: Cell growth inhibition bioassay (sulforhodamine B); type: cell-based, human; conditions: Homo sapiens, M14; 48 h, SRB; read-out: GI50 in indicated cell line: M-14
Method in brief: as §1

MCF-7 cells = assay: Cell growth inhibition bioassay (sulforhodamine B); type: cell-based, human; conditions: Homo sapiens, MCF7; 48 h, SRB; read-out: GI50 in indicated cell line: MCF-7
Method in brief: as §2

VERO cells = assay: Cell growth inhibition bioassay (sulforhodamine B); type: cell-based, African Green Monkey; conditions: Chlorocebus sabaeus, Vero; 48 h, SRB; read-out: GI50 in indicated cell line: VERO
Method in brief: as §1

[1] = tested on: Trypanosoma cruzi (Tulahuen C4); assay: In vitro anti-T. cruzi activity (β-galactosidase CPRG colorimetric assay in VERO monolayer); type: cell-based; conditions: for IC50: Trypanosoma cruzi, TULAHUEN, Vero
M. tuberculosis H37Rv = assay: Conventional aerobic (MABA) culture assay, luminescence MIC; type: cell-based, Mycobacterium tuberculosis
[2] = Toxicity to peritoneal macrophages (Trypan Blue count); type: cell-based, BALB/C mouse; conditions: BALB/C, mouse, Cytotoxicity Macrophages IC50
[3] = tested on: axenic amastigotes of L. amazonensis (strain MHOM/BR/76/LTB-012); conditions: Table 8b
[4] = Cytotoxicity VERO cell (Table 6); conditions: African green monkey, VERO cells
[5] = tested on: axenic amastigotes of L. amazonensis (strain MHOM/BR/76/LTB-012); assay: microbe, parasite or virus in culture; conditions: Leishmania amazonensis, read-out: L. amazonensis IC50
[6] = Cytotoxicity on VERO cells (MTT), anti-T. cruzi study; conditions: African green monkey, VERO cells, Cytotoxicity VERO Lab B, Lab B
L. braziliensis PER006 = assay: Activity against macrophages infected with Leishmania amastigotes; conditions: Leishmania braziliensis, Macrophage, read-out: IC50 L. braziliensis PER006
Experimental: (§3) A cloned line of Leishmania amazonensis(strain MHOM/BR/76/LTB-012) was used in all experiments. Axenically grown amastigote forms of L. amazonensis were maintained by weekly subpassages in MAA/20 medium (Sereno and Lemesre, Antimicrobial Agents and Chemotherapy 41, 972-976 (1997)) at 32±1° C. in 25 cm^2 tissue culture flasks. L. peruviana (strain MHOM/PE/LCA08) and L. braziliensis (strainMHOM/PE/PER006) were maintained in the promastigote stage in a biphasic medium (blood agar with 0.89% NaCl, pH 7.4) at 24° C., with sub-passage every 3 to 4 days. Promastigotes (5×10^6 parasites) were then transferred to 25 cm2 tissue culture flasks containing 5 ml of M199 medium supplemented with 10% foetal bovine serum (FBS), pH 7.4. After 4 days, exponential phase promastigotes were centrifuged for 10 minutes at 1500 g and 4° C. The supernatant was discarded and replaced by fresh M199 medium supplemented with 20% FBS, pH 5.5. Axenic amastigotes transformation was then induced by increasing the temperature to 34° C. and incubating for 96 h (Teixeira et al., Parasitology Research 88, 963-968 (2002)).
(§4) Extracted cells were immediately deposited on sterile 4×4 mm cover glasses and placed in each well of a 96-well plate. Plates were incubated for 24 h at 37° C., 5% CO2 to allow cell adhesion (Castillo et al, Journal of Ethnopharmacology 112, 410-414 (2007)). Pre-warmed complete M199 medium was used twice to remove non-adherent cells. A neutral red method (Fautz et al., Mutation Research 253, 173-179 (1991)) was employed to determine cell concentration. Approximately 7×10^4 viable cells were deposited in each well for adhesion.
(§5) Infection of macrophages by amastigotes was determined as follows. […] Twelve hours after infection, a solution of the compounds to be tested was added to the cultures at various concentrations and maintained at 37° C. in 5% CO2 for a further forty-eight hours more. The plates were fixed with methanol and stained with 10% Giemsa stain. The percentage of infected macrophages was determined microscopically at 100 times magnification. The number of intracellular amastigotes was determined in 300 cells. Following Delorenzi et al. Antimicrobial Agents and Chemotherapy, 45, 1349-1354 (2001)) the percentage of infection rate (% IR) of each culture was calculated as follows: % IR=100−(infection rate of the treated culture/infection rate of the untreated culture)×100.
(§6) All experiments were performed in triplicate. ANOVA was used to test for statistical significance of differences (Epi-Info, Statview student program). The total parasite burden was calculated as a mean number of amastigotes per cells multiplied by the number of infected macrophages.

L. peruviana LCA08 = assay: as above; conditions: Leishmania peruviana, Macrophage, read-out: IC50 L. peruviana LCA08
Experimental: as §3, §4, §5, §6

C(=N/Nc1ncnc2sc3c(c12)CCCC3)/c1ccccn1 [II-21]
GI50 (3T3 cells): 0.013 µg/mL (≈ 0.042 µM)
GI50 (DU145 cells): 0.115 µg/mL (≈ 0.372 µM)
GI50 (H460 cells): 0.123 µg/mL (≈ 0.398 µM)
GI50 (HT-29 cells): 0.03 µg/mL (≈ 0.097 µM)
GI50 (K562 cells): 0.051 µg/mL (≈ 0.165 µM)
GI50 (M-14 cells): 0.078 µg/mL (≈ 0.252 µM)
GI50 (MCF-7 cells): 0.026 µg/mL (≈ 0.084 µM)
GI50 (VERO cells): 0.156 µg/mL (≈ 0.504 µM)
Selectivity Index Lab B ([1]; IC50, VERO/IC50, T. cruzi, Lab B): 0.1
IC50 ([1]; Lab A, read-out: T. cruzi IC50 Lab A): 0.1 µg/mL (≈ 0.323 µM)
IC50 ([1]; Lab B, read-out: T. cruzi IC50 Lab B): 1.2 µg/mL (≈ 3.88 µM)
MIC (M. tuberculosis H37Rv; Mycobacterium tuberculosis, 168 h, aerobic, 7 days, H37Rv): 44.9 µg/mL (≈ 145 µM)
Selectivity Index H37Rv (M. tuberculosis H37Rv; VERO vs MABA MIC): 0.2
IC50 at 48 h [2]: 2000 nM
Selectivity Index [3]: 13.0
IC50 [4]: 10.8 µg/mL (≈ 34.9 µM)
IC50 [5]: 200 nM
IC50 [6]: < 0.08 µg/mL
IC50 (L. braziliensis PER006): 0.19 µg/mL (≈ 0.614 µM)
IC50 (L. peruviana LCA08): 0.2 µg/mL (≈ 0.646 µM)
